Measurements taken from paper PMC10333884, “Large‐scale phosphomimetic screening identifies phospho‐modulated motif‐based protein interactions” (Molecular Systems Biology, 2023).
Blank lines part the entries; values can stand above or below the compound they belong to. Non-standard residues stand in square brackets, D forms with d. Residues, ends and D or L forms follow the SMILES beside them. pT = C[C@@H](OP(=O)(O)O)[C@H](N)C(=O)O; pS = N[C@@H](COP(=O)(O)O)C(=O)O

What was measured:
Assay type in all cases: binding
GGA1 VHS [1] = molecular target: T1, GGA1 VHS (Homo sapiens, UniProt Q9UJY5); test: FP displacement assay, GGA1 VHS
T1 construct: GGA1_VHS__Q9UJY5_1_157; GST (cleaved yes); made in house; host or cells: Escherichia coli BL21-Gold(DE3)
T1 sequence (Q9UJY5 1-157): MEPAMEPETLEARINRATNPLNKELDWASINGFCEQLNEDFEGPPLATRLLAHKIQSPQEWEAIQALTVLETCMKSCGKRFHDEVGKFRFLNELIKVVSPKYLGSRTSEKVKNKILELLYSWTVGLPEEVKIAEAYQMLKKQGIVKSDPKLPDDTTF
Protocol: (§1) FP experiments were performed as described previously (Kliche et al, [2021]). Shortly, in order to monitor the binding event, FITC‐labelled peptides were used (excitation 495 nm, emission: 535 nm) and the FP signal was recorded in mP on a SpectraMax iD5 Multi‐Mode Microplate Reader (Molecular Devices) by measuring the emitted light in two angels. The measurements were performed at room temperature and prepared in nonbinding black half area 96‐well microplates (Corning®; 50 μl/well). For measuring direct binding, that is saturation curves, a 1:1 dilution series of protein domain (25 μl/well) was generated in 50 mM sodium phosphate buffer pH 7.4 and the measurement performed with 5 nM FITC‐labelled peptide (25 μl/well). The buffer‐corrected values were subsequently plotted with PRISM and fitted to the quadratic equation (Gianni et al, [2005]).
(§2) The 1:1 dilution series in this experiment was performed with the unlabelled peptide in 50 mM sodium phosphate buffer pH 7.4, so that each well‐contained unlabelled peptide (25 μl) at a certain concentration and pre‐formed complex (25 μl). The KD values of this indirectly monitored binding event were calculated as described previously (Nikolovska‐Coleska et al, [2004]). All measurements were at least in technical triplicates as well as biological duplicates when indicated. An amplitude shift between repeat measurements in the displacement experiments was occasionally observed due to variations in the protein preparations. If that was the case, the “active” protein concentration was back‐calculated according to the quadratic equation from the saturation curves performed in parallel. By comparing the active protein concentrations in the complex between different protein preparations, the amplitude was normalised.

GGA1 VHS [2] = molecular target: T1, GGA1 VHS; test: ITC, GGA1 VHS; set-up: Ka: unit not given beside the values; conditions: for Kd: ITC (iTC200), 50 mM sodium phosphate pH 7.4, 1 mM DTT, average of the runs, technical duplicates
Clathrin NTD = molecular target: T2, Clathrin NTD (Homo sapiens, UniProt Q00610); test: FP displacement assay, clathrin NTD
T2 construct: GST (cleaved yes); made in house; host or cells: Escherichia coli BL21-Gold(DE3)
T2 sequence (Q00610 1-364): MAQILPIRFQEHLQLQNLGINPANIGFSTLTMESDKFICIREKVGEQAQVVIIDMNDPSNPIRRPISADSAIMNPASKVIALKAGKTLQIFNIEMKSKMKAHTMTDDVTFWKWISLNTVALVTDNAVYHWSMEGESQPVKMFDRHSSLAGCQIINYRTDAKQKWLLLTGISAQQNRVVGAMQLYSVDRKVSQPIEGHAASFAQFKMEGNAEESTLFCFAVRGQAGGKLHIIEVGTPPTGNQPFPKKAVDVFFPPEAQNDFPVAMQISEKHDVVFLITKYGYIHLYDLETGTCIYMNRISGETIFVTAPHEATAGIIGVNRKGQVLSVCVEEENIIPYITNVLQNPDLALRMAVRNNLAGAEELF
Protocol: as §1, §2

SNX27 PDZ = molecular target: T3, SNX27 PDZ (Homo sapiens, UniProt Q96L92); test: FP displacement assay, SNX27 PDZ (MBP-tagged); conditions: for Kd: MBP-tagged domain, probe FITC-SYT16 5 nM, 50 mM sodium phosphate pH 7.4, room temperature, at least three technical replicates, read-out: KD values ± SEM
T3 construct: SNX27_PDZ__Q96L92_40_141; made in house; host or cells: Escherichia coli BL21-Gold(DE3)
Protocol: For FP, ITC and crystallisation, the tag was removed with the appropriate protease either on beads (0.1 mg/ml thrombin (Cytiva) in PBS, 1 mM dithiothreitol (DTT)) or by dialysis in cleavage buffer (Human Rhinovirus (HRV) 3C protease: 50 mM Tris–HCl pH 7.4, 150 mM NaCl, 1 mM β‐mercaptoethanol), both procedures were overnight. In case of HRV protease cleavage, the tag was separated from the target protein domain by reverse ion metal affinity chromatography using Ni^2+ beads for purification, whereas thrombin was removed using a benzamidine column (Cytiva). Affinity measurements for SNX27 PDZ were performed on the MBP‐tagged construct, as well as PIN1 WW domain on the GST‐tagged construct. For FP and ITC, proteins were dialysed in 50 mM sodium phosphate buffer pH 7.4, 1 mM DTT. For crystallisation of the NTD of clathrin, the protein was further purified by a S200 Sepharose column (Cytiva) using 20 mM Tris–HCl pH 7.4, 150 mM NaCl and 1 mM DTT.
as §1, §2

[3] = FP displacement, probe FITC-IGF2R 5 nM, 50 mM sodium phosphate pH 7.4, room temperature, at least three technical replicates, read-out: KD values ± SEM
[4] = ITC single run: date 200220, injection 1
[5] = ITC single run: date 200220, injection 2

SMILES: CC[C@H](C)[C@H](NC(=O)[C@H](CC(C)C)NC(=O)[C@H](CC(N)=O)NC(=O)CNC(=O)CNC(=O)[C@H](Cc1ccc(O)cc1)NC(C)=O)C(=O)N[C@H](C(=O)N[C@@H](Cc1ccccc1)C(=O)N[C@@H](COP(=O)(O)O)C(=O)N1CCC[C@H]1C(=O)N[C@@H](CC(C)C)C(=O)N[C@@H](CCC(N)=O)C(=O)N1CCC[C@H]1C(=O)NCC(=O)N[C@@H](CCC(=O)O)C(=O)N[C@@H](Cc1ccccc1)C(=O)O)[C@@H](C)O [HURP832–846 pS Cterm] (Ac-YGGNLITF[pS]PLQPGEF-OH)
Kd (Clathrin NTD): < 3 µM
IC50 (Clathrin NTD; Fig 6A, clathrin NTD, FP displacement, two to three technical replicates per protein preparation, 2 independent preparations, read-out: IC50 values of displacement curves, with SEM): 11 ± 4 µM

SMILES: CC[C@H](C)[C@H](NC(=O)[C@H](CC(C)C)NC(=O)[C@H](CCC(N)=O)NC(=O)CNC(=O)[C@H](Cc1ccc(O)cc1)NC(C)=O)C(=O)N[C@@H](CC(=O)O)C(=O)N[C@@H](CC(C)C)C(=O)N[C@@H](CO)C(=O)N[C@@H](CO)C(=O)N1CCC[C@H]1C(=O)N[C@@H](CC(C)C)C(=O)N[C@H](C(=O)N[C@@H](CCC(N)=O)C(=O)N[C@@H](CC(C)C)C(=O)N[C@@H](CO)C(=O)N1CCC[C@H]1C(=O)N[C@@H](CCC(=O)O)C(N)=O)[C@@H](C)CC [GTSE1_692–707] (Ac-YGQLIDLSSPLIQLSPE-NH2)
Kd (Clathrin NTD): ~100 µM

SMILES: CC(=O)N[C@@H](CC(N)=O)C(=O)N[C@@H](CC(C)C)C(=O)N[C@@H](CC(C)C)C(=O)N[C@@H](CC(C)C)C(=O)N[C@@H](CCC(=O)O)C(=O)N[C@@H](CCCNC(=N)N)C(=O)N[C@@H](CC(=O)O)C(=O)N[C@H](C(=O)N[C@@H](COP(=O)(O)O)C(=O)N[C@@H](Cc1ccccc1)C(=O)N[C@H](C(=O)N[C@H](C(=O)N[C@@H](C)C(=O)N1CCC[C@H]1C(=O)N[C@@H](CC(=O)O)C(=O)N[C@@H](Cc1ccc(O)cc1)C(N)=O)C(C)C)[C@@H](C)O)[C@@H](C)O [CDC25C30–44 pS] (Ac-NLLLERDT[pS]FTVAPDY-NH2)
Kd (SNX27 PDZ): 395 ± 63 µM

SMILES: CC(=O)N[C@@H](CC(=O)O)C(=O)N[C@@H](CC(C)C)C(=O)N[C@@H](CC(C)C)C(=O)N[C@H](C(=O)N[C@@H](CO)C(=O)N1CCC[C@H]1C(=O)N[C@@H](CC(=O)O)C(=O)N[C@H](C(=O)NCC(=O)N[C@@H](CC(C)C)C(=O)N[C@@H](CC(C)C)C(=O)N[C@@H](CCCCN)C(=O)N[C@@H](CC(C)C)C(=O)N[C@@H](C)C(=O)N[C@@H](CO)C(=O)N[C@@H](Cc1ccc(O)cc1)C(N)=O)C(C)C)[C@@H](C)OP(=O)(O)O [JUN59–73 pS] (Ac-DLL[pT]SPDVGLLKLASY-NH2)
Kd (GGA1 VHS [1]): 1900 µM

SMILES: CC(=O)N[C@@H](CC(=O)O)C(=O)N[C@@H](CC(C)C)C(=O)N[C@@H](CC(C)C)C(=O)N[C@H](C(=O)N[C@@H](CO)C(=O)N1CCC[C@H]1C(=O)N[C@@H](CC(=O)O)C(=O)N[C@H](C(=O)NCC(=O)N[C@@H](CC(C)C)C(=O)N[C@@H](CC(C)C)C(=O)N[C@@H](CCCCN)C(=O)N[C@@H](CC(C)C)C(=O)N[C@@H](C)C(=O)N[C@@H](CO)C(=O)N[C@@H](Cc1ccc(O)cc1)C(N)=O)C(C)C)[C@@H](C)O [JUN59–73 wt] (Ac-DLLTSPDVGLLKLASY-NH2)
Kd (GGA1 VHS [1]): 470 ± 50 µM

SMILES: CC(=O)N[C@@H](CCC(=O)O)C(=O)N[C@H](C(=O)N[C@@H](Cc1ccc(O)cc1)C(=O)N[C@@H](Cc1ccc(O)cc1)C(=O)N[C@@H](CC(C)C)C(=O)N[C@@H](CO)C(=O)N[C@@H](CC(=O)O)C(=O)N[C@@H](CO)C(=O)N1CCC[C@H]1C(=O)N[C@@H](CC(C)C)C(=O)N[C@@H](CC(C)C)C(=O)NCC(=O)N1CCC[C@H]1C(=O)N1CCC[C@H]1C(=O)N[C@H](C(=O)NCC(N)=O)C(C)C)[C@@H](C)O [GTSE1_145–160 wt] (Ac-ETYYLSDSPLLGPPVG-NH2)
Kd (GGA1 VHS [1]; [3]): 96 ± 8 µM

Other lines, results leading:

Kd (GGA1 VHS [1]; [3]): 420 ± 50 µM
Kd (GGA1 VHS [2]): 919 µM
Ka (GGA1 VHS [2]; [4]): 2030
Ka (GGA1 VHS [2]; [5]): 744
SMILES: CC[C@H](C)[C@H](NC(=O)[C@H](CC(=O)O)NC(=O)[C@H](CC(=O)O)NC(=O)[C@H](CO)NC(=O)[C@@H](NC(=O)[C@@H]1CCCN1C(=O)[C@H](CO)NC(=O)[C@H](CCCCN)NC(=O)[C@H](Cc1ccc(O)cc1)NC(C)=O)[C@@H](C)O)C(=O)N[C@@H](CO)C(=O)N[C@@H](CC(C)C)C(=O)N[C@@H](CC(C)C)C(=O)N[C@@H](Cc1c[nH]cn1)C(=O)N[C@@H](CCC(=O)O)C(=O)N[C@@H](CO)C(=O)N[C@@H](CCC(N)=O)C(=O)N[C@@H](CO)C(N)=O [RNF11_6–21 wt] (Ac-YKSPTSDDISLLHESQS-NH2)

IC50 (SNX27 PDZ; Fig 4B, SNX27 PDZ, technical triplicates, read-out: IC50 values of displacement curves, with SEM): 427 ± 39 µM
Kd (SNX27 PDZ): 96 ± 5 µM
SMILES: CSCC[C@H](NC(=O)CNC(C)=O)C(=O)N[C@H](C(=O)N[C@@H](CO)C(=O)N[C@@H](COP(=O)(O)O)C(=O)N[C@H](C(=O)N[C@@H](CO)C(=O)N[C@@H](Cc1ccccc1)C(=O)N[C@@H](CC(N)=O)C(=O)NCC(=O)NCC(=O)N[C@@H](Cc1ccc(O)cc1)C(N)=O)[C@@H](C)O)C(C)C [DAXX606–616 pS] (Ac-GMVS[pS]TSFNGGY-NH2)

Kd (SNX27 PDZ): 300 ± 125 µM
SMILES: CSCC[C@H](NC(=O)CNC(C)=O)C(=O)N[C@H](C(=O)N[C@@H](CO)C(=O)N[C@@H](CO)C(=O)N[C@H](C(=O)N[C@@H](CO)C(=O)N[C@@H](Cc1ccccc1)C(=O)N[C@@H](CC(N)=O)C(=O)NCC(=O)NCC(=O)N[C@@H](Cc1ccc(O)cc1)C(N)=O)[C@@H](C)O)C(C)C [DAXX606–616 wt] (Ac-GMVSSTSFNGGY-NH2)

Kd (GGA1 VHS [1]; [3]): 31 ± 3 µM
Kd (GGA1 VHS [2]): 27 µM
Ka (GGA1 VHS [2]; [4]): 35100
Ka (GGA1 VHS [2]; [5]): 38900
SMILES: CC[C@H](C)[C@H](NC(=O)[C@H](CC(=O)O)NC(=O)[C@H](CC(=O)O)NC(=O)[C@H](CO)NC(=O)[C@@H](NC(=O)[C@@H]1CCCN1C(=O)[C@H](CO)NC(=O)[C@H](CCCCN)NC(=O)[C@H](Cc1ccc(O)cc1)NC(C)=O)[C@@H](C)O)C(=O)N[C@@H](COP(=O)(O)O)C(=O)N[C@@H](CC(C)C)C(=O)N[C@@H](CC(C)C)C(=O)N[C@@H](Cc1c[nH]cn1)C(=O)N[C@@H](CCC(=O)O)C(=O)N[C@@H](CO)C(=O)N[C@@H](CCC(N)=O)C(=O)N[C@@H](CO)C(N)=O [RNF11_6–21 pS] (Ac-YKSPTSDDI[pS]LLHESQS-NH2)

Kd (SNX27 PDZ): 111 ± 17 µM
SMILES: CC(=O)N[C@@H](CC(N)=O)C(=O)N[C@@H](CC(C)C)C(=O)N[C@@H](CC(C)C)C(=O)N[C@@H](CC(C)C)C(=O)N[C@@H](CCC(=O)O)C(=O)N[C@@H](CCCNC(=N)N)C(=O)N[C@@H](CC(=O)O)C(=O)N[C@H](C(=O)N[C@@H](CO)C(=O)N[C@@H](Cc1ccccc1)C(=O)N[C@H](C(=O)N[C@H](C(=O)N[C@@H](C)C(=O)N1CCC[C@H]1C(=O)N[C@@H](CC(=O)O)C(=O)N[C@@H](Cc1ccc(O)cc1)C(N)=O)C(C)C)[C@@H](C)O)[C@@H](C)O [CDC25C30–44 wt] (Ac-NLLLERDTSFTVAPDY-NH2)
